# According to patent US20080249168A1, “Pharmaceutical composition for gout” (priority 2007, published 2008):
# “Also recorded” adds a separate entry of the source.
# Columns and labels:
# [1] = tested on: hyperuricemia model of Kunmin mouse; assay: Influence of l-carnitine on serum uric acid in hyperuricemia model of Kunmin mouse (oteracil potassium as inducer); format: in vivo; details: for serum uric acid value (X ± S): peritoneal injection, blood one hour after injection of inducer, P < 0.01 vs negative control
# Description: (§1) Fifty healthy kunmin Mouse (weight of 18-22 grams, male) were randomly divided into 5 groups, which are positive control group, negative control group, and small (250 mg/kg), medium (500 mg/kg) and large (1000 mg/kg) doses of 1-carnitine groups. The solvent for all solutions is 0.5% of sodium carboxymethyl cellulose (CMC—Na), with peritoneal injection in dose of 0.1 ml/10 g for all animals. For […], same dose of 0.5% of CMC—Na solution was injected. One hour after injection of inducer, blood samples were taken from eyeball, stet at room temperature for about one hour, centrifugation at 4000 r.p.m for 10 mins, supernatant was transferred to fresh tube for biochemical test of serum uric acid.
# The efficacy of the composition described in the present invention is clearly shown in Example 1, where uricase inhibitor oteracil potassium is used as model inducer to induce hyperuricemia in Kunmin mouse, and administered Levocarnitine to observe novel pharmacological effect on the model.
# normal kunmin mice = assay: Influence of L-carnitine on serum uric acid level in normal Kunmin mouse; format: in vivo; details: 300 mg/kg
# Description: as §1, with “acid. Thirty healthy kunmin mouse (weight of 18-22 grams, male) were randomly divided into 3 groups, which are positive control group, negative control group, and 1-carnitine (300 mg/k) group. Others method was same as example 1.” for “acid.”
smiles,measurement,setting,value
"C[N+](C)(C)C[C@H](O)CC(=O)[O-] [L-Carnitine, Levocarnitine (L-carnitine)]",serum uric acid value (X ± S),[1]; 250 mg/kg (small dose),140.6 ± 51.55
same,serum uric acid value (X ± S),[1]; 500 mg/kg (medium dose),130.1 ± 34.8
same,serum uric acid value (X ± S),[1]; 1000 mg/kg (large dose),131.7 ± 24.79
same,effect on serum uric acid level (in words),[1]; dose 250-1000 mg/kg,reduced serum uric acid level of model animal group significantly; also recorded: reduced the uric acid level significantly
same,effect on uric acid level (in words),normal kunmin mice,no effect on uric acid level
same,serum uric acid value (X ± S),normal kunmin mice; P > 0.05 vs normal positive control group,76.9 ± 30.77
same,effect on uric acid level (in words),normal kunmin mice; listed as 1-carnitine,not affecting uric acid level
